{"source": "patent US20130344026A1", "about": "“Dimeric Smac Mimetics” (priority 2009, published 2013)", "data": [{"system": "HCC461", "test": "cell viability assay in HCC461, compound alone", "type": "cell-based", "details": "HCC461, HCC461; Tables 6-9; read-out: IC50 (μM) in cell viability assay in HCC461", "units": {"IC50": "µM"}, "values": [{"compound": "CN[C@@H](C)C(=O)N[C@H](C(=O)N1C[C@@H](NC(=O)c2cccc(C(=O)N[C@H]3C[C@@H](C(=O)N[C@@H]4CCCc5ccccc54)N(C(=O)[C@@H](NC(=O)[C@H](C)NC)C(C)(C)C)C3)c2)C[C@H]1C(=O)N[C@H](C)C(C)C)C(C)C", "note": "[Compound 133]", "IC50": 0.016}, {"compound": "CN[C@@H](C)C(=O)N[C@@H](CCC(=O)O)C(=O)N1C[C@@H](NC(=O)c2cccc(C(=O)N[C@H]3C[C@@H](C(=O)N[C@H](C)c4ccccc4)N(C(=O)[C@@H](NC(=O)[C@H](C)NC)C(C)(C)C)C3)c2)CC1C(=O)N[C@H](C)c1ccccc1", "note": "(stereo partly shown) [Compound 148]", "IC50": 0.622}, {"compound": "CCC[C@H](NC(=O)[C@H](C)NC)C(=O)N1C[C@@H](NC(=O)c2cccc(C(=O)N[C@H]3C[C@@H](C(=O)N[C@@H]4CCCc5ccccc54)N(C(=O)[C@@H](NC(=O)[C@H](C)NC)C(C)(C)C)C3)c2)C[C@H]1C(=O)NC(C)(C)C", "note": "[Compound 156]", "IC50": 0.083}, {"compound": "CN[C@@H](C)C(=O)N[C@@H](CCC(=O)OC)C(=O)N1C[C@@H](NC(=O)c2cccc(C(=O)N[C@H]3C[C@@H](C(=O)N[C@@H]4CCCc5ccccc54)N(C(=O)[C@@H](NC(=O)[C@H](C)NC)C(C)(C)C)C3)c2)CC1C(=O)N[C@H](C)c1ccccc1", "note": "(stereo partly shown) [Compound 149]", "IC50": 0.072}, {"compound": "CN[C@@H](C)C(=O)N[C@H](C(=O)N1C[C@@H](NC(=O)c2cccc(C(=O)NCC[C@@H](NC(=O)[C@H](NC(=O)[C@H](N)CO)C(C)C)C(=O)N[C@@H](C)C(C)C)c2)C[C@H]1C(=O)N[C@@H]1CCCc2ccccc21)C(C)(C)C", "note": "[Compound 139]", "IC50": 0.849}, {"compound": "CN[C@@H](C)C(=O)NC(C(=O)N1C[C@@H](NC(=O)c2cccc(C(=O)N[C@H]3C[C@@H](C(=O)N[C@H](C)c4ccccc4)N(C(=O)[C@H](CCC(=O)OC)NC(=O)[C@H](CO)NC)C3)c2)CC1C(=O)N[C@@H]1CCCc2ccccc21)C(C)(C)C", "note": "(stereo partly shown) [Compound 154]", "IC50": 3.6}]}, {"system": "HCC461", "test": "cell viability assay in HCC461, compound alone", "type": "cell-based", "details": "HCC461, HCC461; Tables 15-18; read-out: IC50 (uM) in cell viability assay in HCC461", "units": {"IC50": "µM"}, "values": [{"compound": "CN[C@@H](C)C(=O)N[C@@H](CCCCNC(=O)c1cc(C(=O)NCCCC[C@H](NC(=O)[C@H](C)NC)C(=O)N2CCC[C@H]2C(=O)NC(c2ccccc2)c2ccccc2)[nH]n1)C(=O)N1CCC[C@H]1C(=O)NC(c1ccccc1)c1ccccc1", "note": "[Compound P2-31]", "IC50": 0.268}, {"compound": "C#CC[C@H](NC(=O)[C@H](C)NC)C(=O)N1C[C@@H](n2cc(C[C@H](NC(=O)[C@H](C)NC)C(=O)N3C[C@@H](N=[N+]=[N-])C[C@H]3C(=O)N[C@@H]3CCCc4ccccc43)nn2)C[C@H]1C(=O)N[C@@H]1CCCc2ccccc21", "note": "[Compound H-2]", "IC50": 0.114}, {"compound": "CN[C@@H](C)C(=O)N[C@@H](CCCCNC(=O)c1cc(N)cc(C(=O)NCCCC[C@H](NC(=O)[C@H](C)NC)C(=O)N2CCC[C@H]2C(=O)N[C@@H]2CCCc3ccccc32)c1)C(=O)N1CCC[C@H]1C(=O)N[C@@H]1CCCc2ccccc21", "note": "[Compound P2-24]", "IC50": 0.121}, {"compound": "CN[C@@H](C)C(=O)N[C@H](C(=O)N1CCC[C@H]1C(=O)N[C@H](C(=O)NCCC#CC#CCCNC(=O)[C@@H](NC(=O)[C@@H]1CCCN1C(=O)[C@@H](NC(=O)[C@H](C)NC)C(C)(C)C)C1CCCCC1)C1CCCCC1)C(C)(C)C", "note": "[Compound P4-1]", "IC50": 0.08}, {"compound": "CN[C@@H](C)C(=O)N[C@H](C(=O)N1CCC[C@H]1C(=O)NC1c2ccccc2-c2ccccc21)[C@@H](C)OCCCCCCO[C@H](C)[C@H](NC(=O)[C@H](C)NC)C(=O)N1CCC[C@H]1C(=O)NC1c2ccccc2-c2ccccc21", "note": "[Compound P2-16]", "IC50": 0.03}, {"compound": "CN[C@@H](C)C(=O)N[C@H](C(=O)N1CCC[C@H]1C(=O)N[C@H](CNC(=O)c1cc(N)cc(C(=O)NC[C@@H](NC(=O)[C@@H]2CCCN2C(=O)[C@@H](NC(=O)[C@H](C)NC)C(C)(C)C)c2ccccc2)c1)c1ccccc1)C(C)(C)C", "note": "[Compound P4-13]", "IC50": 0.089}, {"compound": "CN[C@@H](C)C(=O)N[C@@H](CCCCCC[C@H](NC(=O)[C@H](C)NC)C(=O)N1CCC[C@H]1C(=O)N(C)Cc1ccccc1)C(=O)N1CCC[C@H]1C(=O)N(C)Cc1ccccc1", "note": "[Compound P2-4]", "IC50": 0.037}, {"compound": "CN[C@@H](C)C(=O)N[C@@H](CCCCNc1nc(NCCCC[C@H](NC(=O)[C@H](C)NC)C(=O)N2CCC[C@H]2C(=O)N[C@@H]2CCCc3ccccc32)nc(OC)n1)C(=O)N1CCC[C@H]1C(=O)N[C@@H]1CCCc2ccccc21", "note": "[Compound P2-32]", "IC50": 0.038}, {"compound": "CN[C@@H](C)C(=O)N[C@@H](CC#CC#CC[C@H](NC(=O)[C@H](C)NC)C(=O)N1C[C@@H](NS(=O)(=O)c2ccccc2)C[C@H]1C(=O)N[C@@H]1CCCc2ccccc21)C(=O)N1C[C@@H](NS(=O)(=O)c2ccccc2)C[C@H]1C(=O)N[C@@H]1CCCc2ccccc21", "note": "[Compound P2-11]", "IC50": 0.171}, {"compound": "C[C@@H](C(=O)N[C@@H](CC#CC#CC[C@H](NC(=O)[C@H](C)N(C)C(=O)C(F)(F)F)C(=O)N1CCC[C@H]1C(=O)N[C@@H]1CCCc2ccccc21)C(=O)N1CCC[C@H]1C(=O)N[C@@H]1CCCc2ccccc21)N(C)C(=O)C(F)(F)F", "note": "[Compound P2-18]", "IC50": 0.031}]}, {"system": "HCC461", "test": "cell viability assay in HCC461, compound alone", "type": "cell-based", "details": "HCC461, HCC461 cells, compound alone; read-out: IC50 (uM) in cell viability assay in HCC461", "units": {"IC50": "µM"}, "values": [{"compound": "CN[C@@H](C)C(=O)N[C@H](C(=O)N1C[C@@H](NC(=O)c2cccc(C(=O)N[C@H]3C[C@@H](C(=O)N[C@H](C)C4CCCCC4)N(C(=O)[C@@H](NC(=O)[C@H](C)NC)C(C)(C)C)C3)c2)C[C@H]1C(=O)N[C@H](C)C1CCCCC1)C(C)(C)C", "note": "[Compound P3-43]", "IC50": 0.057}, {"compound": "CN[C@@H](C)C(=O)N[C@H](C(=O)N1C[C@@H](Oc2cccc(O[C@H]3C[C@@H](C(=O)NC4CCCc5ccccc54)N(C(=O)[C@@H](NC(=O)[C@H](C)NC)C(C)(C)C)C3)c2)C[C@H]1C(=O)NC1CCCc2ccccc21)C(C)(C)C", "note": "(stereo partly shown) [Compound P3-25]", "IC50": 0.007}, {"compound": "CN[C@@H](C)C(=O)N[C@H](C(=O)N1C[C@@H](NC(=O)c2ccc3cc(C(=O)N[C@H]4C[C@@H](C(=O)N[C@@H]5CCCc6ccccc65)N(C(=O)[C@@H](NC(=O)[C@H](C)NC)C(C)(C)C)C4)ccc3c2)C[C@H]1C(=O)N[C@@H]1CCCc2ccccc21)C(C)(C)C", "note": "[Compound P3-38]", "IC50": 0.007}, {"compound": "CN[C@@H](C)C(=O)N[C@H](C(=O)N1C[C@@H](NC(=O)c2cnc(C(=O)N[C@H]3C[C@@H](C(=O)N[C@@H]4CCCc5ccccc54)N(C(=O)[C@@H](NC(=O)[C@H](C)NC)C(C)(C)C)C3)cn2)C[C@H]1C(=O)N[C@@H]1CCCc2ccccc21)C(C)(C)C", "note": "[Compound P3-13]", "IC50": 0.028}, {"compound": "CN[C@@H](C)C(=O)N[C@H](C(=O)N1C[C@@H](NC(=O)c2ccc(C(=O)N[C@H]3C[C@@H](C(=O)NC4c5ccccc5-c5ccccc54)N(C(=O)[C@@H](NC(=O)[C@H](C)NC)C(C)(C)C)C3)cc2)C[C@H]1C(=O)NC1c2ccccc2-c2ccccc21)C(C)(C)C", "note": "[Compound P3-2]", "IC50": 0.02}, {"compound": "CN[C@@H](C)C(=O)N[C@H](C(=O)N1C[C@@H](NC(=O)c2cc(NC(C)=O)cc(C(=O)N[C@H]3C[C@@H](C(=O)N[C@@H]4CCCc5ccccc54)N(C(=O)[C@@H](NC(=O)[C@H](C)NC)C(C)(C)C)C3)c2)C[C@H]1C(=O)N[C@@H]1CCCc2ccccc21)C(C)(C)C", "note": "[Compound P3-42]", "IC50": 0.011}, {"compound": "CN[C@@H](C)C(=O)N[C@H](C(=O)N1C[C@@H](NC(=O)c2cc(N)cc(C(=O)N[C@H]3C[C@@H](C(=O)N[C@H](C)C4CCCCC4)N(C(=O)[C@@H](NC(=O)[C@H](C)NC)C(C)(C)C)C3)c2)C[C@H]1C(=O)N[C@H](C)C1CCCCC1)C(C)(C)C", "note": "[Compound P3-44]", "IC50": 0.04}, {"compound": "CN[C@@H](C)C(=O)N[C@H](C(=O)N1C[C@@H](NC(=O)c2ccccc2C(=O)N[C@H]2C[C@@H](C(=O)N[C@@H]3CCCc4ccccc43)N(C(=O)[C@@H](NC(=O)[C@H](C)NC)C(C)(C)C)C2)C[C@H]1C(=O)N[C@@H]1CCCc2ccccc21)C(C)(C)C", "note": "[Compound P3-20]", "IC50": 0.008}, {"compound": "CC[C@H](C)C(NC(=O)[C@H](C)NC)C(=O)N1C[C@@H](NC(=O)c2cccc(C(=O)N[C@H]3C[C@@H](C(=O)N(C)[C@H](C)c4ccccc4)N(C(=O)C(NC(=O)[C@H](C)NC)[C@@H](C)CC)C3)c2)C[C@H]1C(=O)N(C)C(C)c1ccccc1", "note": "(stereo partly shown) [Compound P3-68]", "IC50": 0.025}]}, {"system": "HCC461", "test": "cell viability assay in HCC461, compound alone", "type": "cell-based", "details": "HCC461; Tables 6-9; read-out: IC50 (μM) in cell viability assay in HCC461", "units": {"IC50": "µM"}, "values": [{"compound": "C[C@H](NC(=O)OCc1ccc([N+](=O)[O-])cc1)C(=O)NC(C(=O)N1C[C@@H](NC(=O)c2cccc(C(=O)N[C@H]3C[C@@H](C(=O)N[C@@H]4CCCc5ccccc54)N(C(=O)[C@@H](NC(=O)[C@H](C)NC(=O)OCc4ccc([N+](=O)[O-])cc4)C(C)(C)C)C3)c2)CC1C(=O)N[C@@H]1CCCc2ccccc21)C(C)(C)C", "note": "(stereo partly shown) [Compound 111]", "IC50": "> 30"}, {"compound": "CN[C@@H](C)C(=O)N[C@H](C(=O)N[C@@H](CCCCNC(=O)c1cccc(C(=O)N[C@H]2CC(C(=O)N[C@@H]3CCc4ccccc4C3)N(C(=O)[C@@H](NC(=O)[C@H](C)NC)C(C)(C)C)C2)c1)C(=O)N[C@@H](C)C(C)C)C(C)(C)C", "note": "(stereo partly shown) [Compound 161]", "IC50": 2.5}]}, {"system": "HCC461", "test": "cell viability assay in HCC461, compound alone", "type": "cell-based", "details": "HCC461; Tables 15-18; read-out: IC50 (uM) in cell viability assay in HCC461", "units": {"IC50": "µM"}, "values": [{"compound": "CN[C@@H](C)C(=O)N[C@H](C(=O)N1CCC[C@H]1C(=O)N[C@H](CNC(=O)C1CCCC(C(=O)NC[C@@H](NC(=O)[C@@H]2CCCN2C(=O)[C@@H](NC(=O)[C@H](C)NC)C(C)(C)C)C2CCCCC2)C1)C1CCCCC1)C(C)(C)C", "note": "(single isomer, unassigned) [Compound P4-5]", "IC50": 0.011}, {"compound": "CN[C@@H](C)C(=O)N[C@H](C(=O)N1CCC[C@H]1C(=O)N[C@H](CNC(=O)C1CCCC(C(=O)NC[C@@H](NC(=O)[C@@H]2CCCN2C(=O)[C@@H](NC(=O)[C@H](C)NC)C(C)(C)C)C2CCCCC2)C1)C1CCCCC1)C(C)(C)C", "note": "(single isomer, unassigned) [Compound P4-4]", "IC50": 0.004}, {"compound": "CC[C@H](NC)C(=O)N[C@@H](CC#CC#CC[C@H](NC(=O)[C@H](CC)NC)C(=O)N1CCC[C@H]1C(=O)N[C@@H]1CCCc2ccccc21)C(=O)N1CCC[C@H]1C(=O)N[C@@H]1CCCc2ccccc21", "note": "[Compound P2-9]", "IC50": 0.025}]}, {"system": "HCC461", "test": "cell viability assay in HCC461, compound alone", "type": "cell-based", "details": "HCC461 cells, compound alone; read-out: IC50 (uM) in cell viability assay in HCC461", "units": {"IC50": "µM"}, "values": [{"compound": "CN[C@@H](C)C(=O)N[C@H](C(=O)N1C[C@@H](NC(=O)c2cccc(C(=O)N[C@H]3C[C@@H](C(=O)NC4CCCC5CCCCC54)N(C(=O)[C@@H](NC(=O)[C@H](C)NC)C(C)(C)C)C3)c2)C[C@H]1C(=O)NC1CCCC2CCCCC21)C(C)(C)C", "note": "(stereo partly shown) [Compound P3-58]", "IC50": 0.211}]}]}
